Test results published in patent publication US12410153B2, “Compounds, compositions and methods” (Avalo Therapeutics, Inc., priority 2014, dated 2025).
Like-named read-outs stand apart in the source and are kept apart here.

Experiment: Repeated once-daily oral dosing with food (Days 1-7) in healthy subjects, PK and PD
Format: in vivo, human
Details: for mean plasma concentrations higher vs young age subgroup: Day 7, 2 to 24 hours postdose; for AUC(0-t) / Cmax / Vd/F / Tmax / AUC(0-inf) / half-life: plasma, oral; for Cmax: read-out: Cmax, Mean (SD); for AUC(0-inf): read-out: AUCinf, Mean (SD); for half-life: read-out: t1/2, Mean (SD) (converted)
Protocol: A randomized, double-blind, placebo-controlled, parallel-dose group in-patient study is conducted to investigate the pharmacodynamic (PD) effects of crystalline Form II of Compound (I) in healthy subjects.
The study is designed as a three-part, sequential study. The sequential nature of the study ensures that a range of doses are investigated first in a young, healthy population (Part 1) before proceeding to higher doses in the healthy population and the comparator populations (intermediate age and elderly) (Parts 2 and 3). For the purposes of this study, “young” refers to a subject who is 18 to 45 years of age, “intermediate age” refers to a subject who is 46 to 64 years of age, and “elderly” refers to a subject who is 65 years of age or older.
After a screening period of up to 21 days (Days −23 to −3), 16 healthy, young male and female subjects are randomly assigned to a dose group as shown in Table 9.
Each parallel dose group is balanced for gender (approximately equal number of males and females). The randomized subjects are domiciled from Day −1 through Day 8. On Day −1, the subjects receive placebo tablets in the fed state and undergo ambulatory blood pressure monitoring (ABPM) and safety assessments to establish time-matched baselines. On Days 1-7, the subjects receive the study drug in the fed state and undergo safety, pharmacokinetic (PK) and pharmacodynamics (PD) assessments. On Days 8-11, follow-up PK and safety assessments are performed.
Safety assessments include Clinician-Administered Dissociative States Scale (CADSS), Columbia-Suicide Severity Rating Scale (C-SSRS), concomitant medication, adverse event (AE) and vital sign assessments. In PK assessments, blood samples are taken and analyzed to determine PK parameters such as Cmax, Tmax, AUC0-24, and t1/2. PD assessments include ABPM, plasma brain-derived neurotrophic factor (BDNF) measurements, and Profile of Mood States (POMS) assessments.
After a screening period of up to 21 days (Days −23 to −3), 16 subjects (8 healthy, young male and female subjects, and 8 healthy, intermediate age male and female subjects) are randomly assigned to a dose group as shown in Table 10.
After a screening period of up to 21 days (Days −23 to −3), 16 subjects (8 healthy, young male and female subjects, and 8 healthy, elderly male and female subjects) are randomly assigned to a dose group as shown in Table 11.

[1] = female, human, females, all doses pooled, Day 7
[2] = females, all doses pooled, Day 1
[3] = females, all doses pooled, Day 7
[4] = male, human, males, all doses pooled, Day 7

Cc1ccc(COC(=O)N2CC[C@H](CNc3ncccn3)[C@H](F)C2)cc1 [Form II, 4-methylbenzyl (3S, 4R)-3-fluoro-4-[(pyrimidin-2-ylamino)methyl] piperidine-1-carboxylate]
Dose-Normalized Cmax, Mean (SD) (elderly, 12 mg, Day 1): 29.11 (3.96) ng/mL/mg | AUC% extrap, Mean (SD) (elderly, 12 mg, Day 7): 9.70 (5.93) % | CL/F, Mean (SD) (elderly, 12 mg, Day 7): 2.79 (0.72) L/h | Dose-Normalized AUCinf, Mean (SD) (elderly, 12 mg, Day 7): 858.67 (325.40) h * ng/mL/mg | Dose-Normalized Cmax, Mean (SD) (elderly, 12 mg, Day 7): 29.11 (3.96) ng/mL/mg | apparent oral clearance lower vs young age group (elderly, Day 7): approximately 30% | t½ higher vs young age group (elderly, Day 7): ~38% | mean plasma concentrations higher vs young age subgroup (elderly): ~40% | AUC(0-t) (female, human, females, all doses pooled, Day 1, read-out: AUC0-24, Mean (SD)): 2340 ng·h/mL | AUC(0-t) (female, human, females, all doses pooled, Day 1, read-out: AUClast, Mean (SD)): 2310 ng·h/mL | Cmax (female, human, females, all doses pooled, Day 1): 270 ng/mL | Vd/F (female, human, females, all doses pooled, Day 1, read-out: Vz/F, Mean (SD)): 182 L | Tmax (female, human, females, all doses pooled, Day 1, read-out: tmax, Mean (SD)): 2.26 h | Tmax (female, human, females, all doses pooled, Day 1, read-out: tmax, Median): 2 h | AUC(0-t) (female, human, females, all doses pooled, Day 7, read-out: AUC0-24, Mean (SD)): 4470 ng·h/mL | AUC(0-inf) [1]: 9320 ng·h/mL | AUC(0-t) (female, human, females, all doses pooled, Day 7, read-out: AUClast, Mean (SD)): 8580 ng·h/mL | Cmax [1]: 373 ng/mL | Vd/F (female, human, females, all doses pooled, Day 7, read-out: Vss/F, Mean (SD)): 105 L | half-life [1]: 23.8 h | Tmax (female, human, females, all doses pooled, Day 7, read-out: tmax, Mean (SD)): 2.31 h | Tmax (female, human, females, all doses pooled, Day 7, read-out: tmax, Median): 2 h | Day 7/Day 1 Cmax Ratio, Mean (SD) (females, all doses pooled): 1.38 (0.27) | Observed Accumulation Index, Mean (SD) (females, all doses pooled): 1.88 (0.37) | Steady State Accumulation Index, Mean (SD) (females, all doses pooled): 1.10 (0.15) | CL/F, Mean (SD) [2]: 5.79 (0.84) L/h | Dose-Normalized Cmax, Mean (SD) [2]: 20.59 (2.86) ng/mL/mg | AUC% extrap, Mean (SD) [3]: 6.76 (4.26) % | CL/F, Mean (SD) [3]: 3.19 (0.84) L/h | Dose-Normalized AUCinf, Mean (SD) [3]: 698.59 (282.19) h * ng/mL/mg | Dose-Normalized Cmax, Mean (SD) [3]: 27.98 (5.43) ng/mL/mg | effects on average nighttime SBP and DBP (human, in vivo): smaller and less consistently observed | Day 7/Day 1 Cmax Ratio, Mean (SD) (intermediate age, 12 mg): 1.41 (0.17) | Observed Accumulation Index, Mean (SD) (intermediate age, 12 mg): 1.92 (0.25) | Steady State Accumulation Index, Mean (SD) (intermediate age, 12 mg): 1.13 (0.16) | CL/F, Mean (SD) (intermediate age, 12 mg, Day 1): 6.22 (1.34) L/h | Dose-Normalized Cmax, Mean (SD) (intermediate age, 12 mg, Day 1): 21.42 (4.22) ng/mL/mg | AUC% extrap, Mean (SD) (intermediate age, 12 mg, Day 7): 7.51 (1.85) % | CL/F, Mean (SD) (intermediate age, 12 mg, Day 7): 3.27 (0.80) L/h | Dose-Normalized AUCinf, Mean (SD) (intermediate age, 12 mg, Day 7): 675.34 (189.17) h * ng/mL/mg | Dose-Normalized Cmax, Mean (SD) (intermediate age, 12 mg, Day 7): 30.03 (5.40) ng/mL/mg | apparent oral clearance lower vs young age group (intermediate age, Day 7): approximately 18% | t½ higher vs young age group (intermediate age, Day 7): approximately 27% | mean plasma concentrations higher vs young age subgroup (intermediate age): approximately 20% | AUC(0-t) (male, human, males, all doses pooled, Day 1, read-out: AUC0-24, Mean (SD)): 2210 ng·h/mL | AUC(0-t) (male, human, males, all doses pooled, Day 1, read-out: AUClast, Mean (SD)): 2190 ng·h/mL | Cmax (male, human, males, all doses pooled, Day 1): 262 ng/mL | Vd/F (male, human, males, all doses pooled, Day 1, read-out: Vz/F, Mean (SD)): 147 L | Tmax (male, human, males, all doses pooled, Day 1, read-out: tmax, Mean (SD)): 2.12 h | Tmax (male, human, males, all doses pooled, Day 1, read-out: tmax, Median): 2 h | AUC(0-t) (male, human, males, all doses pooled, Day 7, read-out: AUC0-24, Mean (SD)): 3750 ng·h/mL | AUC(0-inf) [4]: 6770 ng·h/mL | AUC(0-t) (male, human, males, all doses pooled, Day 7, read-out: AUClast, Mean (SD)): 6350 ng·h/mL | Cmax [4]: 355 ng/mL | Vd/F (male, human, males, all doses pooled, Day 7, read-out: Vss/F, Mean (SD)): 108 L | half-life [4]: 20.6 h | Tmax (male, human, males, all doses pooled, Day 7, read-out: tmax, Mean (SD)): 1.88 h | Tmax (male, human, males, all doses pooled, Day 7, read-out: tmax, Median): 1.75 h | Day 7/Day 1 Cmax Ratio, Mean (SD) (males, all doses pooled): 1.36 (0.22) | Observed Accumulation Index, Mean (SD) (males, all doses pooled): 1.72 (0.28) | Steady State Accumulation Index, Mean (SD) (males, all doses pooled): 1.15 (0.16) | CL/F, Mean (SD) (males, all doses pooled, Day 1): 6.19 (1.15) L/h | Dose-Normalized Cmax, Mean (SD) (males, all doses pooled, Day 1): 19.78 (3.09) ng/mL/mg | AUC% extrap, Mean (SD) (males, all doses pooled, Day 7): 6.06 (5.38) % | CL/F, Mean (SD) (males, all doses pooled, Day 7): 3.74 (0.83) L/h | Dose-Normalized AUCinf, Mean (SD) (males, all doses pooled, Day 7): 512.15 (188.98) h * ng/mL/mg | Dose-Normalized Cmax, Mean (SD) (males, all doses pooled, Day 7): 26.21 (3.94) ng/mL/mg | steady-state predose plasma concentrations achieved by (repeated daily doses): ≤ 5 study day | steady-state accumulation index, on average (seven days of daily dosing): 1.1 | Observed Accumulation Index, Mean (SD) (young subjects, 8 mg): 1.58 (0.19) | CL/F, Mean (SD) (young subjects, 8 mg, Day 1): 5.36 (0.48) L/h | Dose-Normalized Cmax, Mean (SD) (young subjects, 8 mg, Day 1): 22.42 (2.27) ng/mL/mg | AUC% extrap, Mean (SD) (young subjects, 8 mg, Day 7): 8.61 (8.27) % | CL/F, Mean (SD) (young subjects, 8 mg, Day 7): 3.37 (0.37) L/h | Dose-Normalized AUCinf, Mean (SD) (young subjects, 8 mg, Day 7): 513.73 (174.76) h * ng/mL/mg | Dose-Normalized Cmax, Mean (SD) (young subjects, 8 mg, Day 7): 28.00 (3.75) ng/mL/mg | Day 7/Day 1 Cmax Ratio, Mean (SD) (young subjects, 12 mg): 1.15 (0.18) | Observed Accumulation Index, Mean (SD) (young subjects, 12 mg): 1.65 (0.31) | Steady State Accumulation Index, Mean (SD) (young subjects, 12 mg): 1.01 (0.08) | CL/F, Mean (SD) (young subjects, 12 mg, Day 1): 6.46 (0.18) L/h | Dose-Normalized Cmax, Mean (SD) (young subjects, 12 mg, Day 1): 19.92 (2.78) ng/mL/mg | AUC% extrap, Mean (SD) (young subjects, 12 mg, Day 7): 4.77 (2.72) % | CL/F, Mean (SD) (young subjects, 12 mg, Day 7): 4.00 (0.60) L/h | Dose-Normalized AUCinf, Mean (SD) (young subjects, 12 mg, Day 7): 494.43 (177.79) h * ng/mL/mg | Dose-Normalized Cmax, Mean (SD) (young subjects, 12 mg, Day 7): 22.79 (3.67) ng/mL/mg | Observed Accumulation Index, Mean (SD) (young subjects, 16 mg): 1.70 (0.54) | CL/F, Mean (SD) (young subjects, 16 mg, Day 1): 6.12 (0.90) L/h | Dose-Normalized Cmax, Mean (SD) (young subjects, 16 mg, Day 1): 19.11 (1.97) ng/mL/mg | AUC% extrap, Mean (SD) (young subjects, 16 mg, Day 7): 5.38 (5.13) % | CL/F, Mean (SD) (young subjects, 16 mg, Day 7): 4.01 (1.21) L/h | Dose-Normalized AUCinf, Mean (SD) (young subjects, 16 mg, Day 7): 501.47 (311.57) h * ng/mL/mg | Dose-Normalized Cmax, Mean (SD) (young subjects, 16 mg, Day 7): 25.80 (4.07) ng/mL/mg | Observed Accumulation Index, Mean (SD) (young subjects, 20 mg): 1.71 (0.22) | CL/F, Mean (SD) (young subjects, 20 mg, Day 1): 5.90 (1.31) L/h | Dose-Normalized Cmax, Mean (SD) (young subjects, 20 mg, Day 1): 19.18 (2.87) ng/mL/mg | AUC% extrap, Mean (SD) (young subjects, 20 mg, Day 7): 2.88 (1.30) % | CL/F, Mean (SD) (young subjects, 20 mg, Day 7): 3.51 (0.97) L/h | Dose-Normalized AUCinf, Mean (SD) (young subjects, 20 mg, Day 7): 523.40 (175.33) h * ng/mL/mg | Dose-Normalized Cmax, Mean (SD) (young subjects, 20 mg, Day 7): 26.72 (4.88) ng/mL/mg
